Test results reported in US8236788B2, “Azolylmethyloxiranes, use thereof for controlling plant pathogenic fungi, and agents containing the same” (BASF SE, priority 2006, dated 2012).

Experiments:
[1] = system: Puccinia recondita; test: Protective activity against brown rust of wheat (Puccrt P1), greenhouse; format: in vivo, Puccinia recondita on wheat seedlings; conditions: 63 ppm active compound, protective spray 1 day before inoculation, assessed visually after further 7 days; untreated plants 90% infected
Protocol: (§1) The active compounds were prepared separately or jointly as a stock solution comprising 25 mg of active compound which was made up to 10 ml using a mixture of acetone and/or DMSO and the emulsifier Wettol EM 31 (wetting agent having emulsifying and dispersing action based on ethoxylated alkylphenols) in a volume ratio of solvent/emulsifier of 99:1. The mixture was then made up to 100 ml with water. This stock solution was diluted with the solvent/emulsifier/water mixture described to give the concentration of active compounds stated below.
Leaves of potted wheat seedlings were sprayed to run off point with an aqueous suspension having the active compound concentration stated below. The next day, the treated plants were inoculated with a spore suspension of brown rust of wheat (Puccinia recondita). The plants were then placed in a chamber with high atmospheric humidity (90 to 95%) at 20 to 22° C. for 24 hours. During this time, the spores germinated and the germ tubes penetrated into the leaf tissue. The next day, the test plants were returned to the greenhouse and cultivated at temperatures between 20 and 22° C. and 65 to 70% relative atmospheric humidity for a further 7 days. The extent of the rust fungus development on the leaves was then determined visually.

[2] = system: Sphaerotheca fuliginea; test: Activity against mildew on cucumber leaves, protective application (Sphrfu P1), greenhouse; format: in vivo, Sphaerotheca fuliginea on cucumber seedlings; conditions: 63 ppm active compound, protective spray 20 hours before inoculation, assessed visually after 7 days; untreated plants 90% infected
Protocol: as §1
At the cotyledon stage, leaves of potted cucumber seedlings were sprayed to run off point with an aqueous suspension having the active compound concentration below. 20 hours after the spray coating had dried on, the plants were inoculated with an aqueous spore suspension of mildew of cucumber (Sphaerotheca fuliginea). The plants were then cultivated in a greenhouse at temperatures between 20 and 24° C. and 60 to 80% relative atmospheric humidity for 7 days. The extent of the mildew development was then determined visually in % infection of the cotyledon area.

## N#Cc1ccc(C2(Cn3cncn3)OC2c2ccccc2F)c(F)c1 (stereo not drawn) [Compound 69.3, 4-{anti-2-[(1H-1,2,4-triazol-1-yl)methyl]-3-[2-fluorophenyl]oxiran-2-yl}-3-fluorobenzonitrile]
[1]
  infection (extent of rust fungus development on the leaves): 0%
[2]
  infection of the cotyledon area: 1%
